# Experimental data from ChEMBL document CHEMBL1151589, “Synthesis and inhibitory activity of optically active 2-benzyl-3-mercaptopropanoic acid against carboxypeptidase A” (Bioorg Med Chem Lett, 1993).
# Key:
# [1] = molecular target: T1, Mast cell carboxypeptidase A (Homo sapiens, UniProt P15088); experiment: Compound was tested for inhibitory activity against carboxypeptidase A; Not active
# T1 sequence (P15088 whole entry): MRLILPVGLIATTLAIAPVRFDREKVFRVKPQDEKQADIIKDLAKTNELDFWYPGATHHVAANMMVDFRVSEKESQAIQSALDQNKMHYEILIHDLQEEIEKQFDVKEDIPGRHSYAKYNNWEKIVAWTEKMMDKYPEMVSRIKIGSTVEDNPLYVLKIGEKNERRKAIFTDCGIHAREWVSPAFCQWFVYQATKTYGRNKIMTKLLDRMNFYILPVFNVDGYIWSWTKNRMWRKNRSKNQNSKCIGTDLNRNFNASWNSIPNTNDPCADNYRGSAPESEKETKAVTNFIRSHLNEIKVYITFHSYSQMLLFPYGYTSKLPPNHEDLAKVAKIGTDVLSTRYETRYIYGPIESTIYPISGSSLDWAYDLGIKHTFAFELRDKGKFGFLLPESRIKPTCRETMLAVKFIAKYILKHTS
# [2] = Compound was tested for inhibitory activity against Carboxypeptidase A
SMILES,Ki [1],Ki [2] [µM]
O=C(O)[C@H](CS)Cc1ccccc1,Not Active,
O=C(O)C(CS)Cc1ccccc1 (racemic),,11
